Results from article PMC8911585, “Unique Properties of Heme Binding of the Porphyromonas gingivalis HmuY Hemophore-like Protein Result from the Evolutionary Adaptation of the Protein Structure” (Molecules, 2022).
Like-named read-outs stand apart in the source and are kept apart here.

Experiments:
HmuY [1] = target: T1, HmuY (Porphyromonas gingivalis, UniProt A2I2W2, H134M); assay: biochemical
HmuY [2] = target: T1, HmuY; assay: biochemical; remark: listed apart in the source

T1 sequence (A2I2W2 26-216 H134M): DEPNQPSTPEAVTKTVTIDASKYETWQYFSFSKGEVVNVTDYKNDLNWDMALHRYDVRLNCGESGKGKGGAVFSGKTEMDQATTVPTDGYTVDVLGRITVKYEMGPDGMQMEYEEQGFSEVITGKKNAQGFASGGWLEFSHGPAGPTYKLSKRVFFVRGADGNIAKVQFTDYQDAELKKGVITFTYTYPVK

SMILES | Kd (HmuY [1]) [µM] | Kd (HmuY [2]) [µM]
C=CC1=C(C)C2=Cc3c(C=C)c(C)c4[n]3[Fe][n]3c(c(C)c(CCC(=O)O)c3=CC3=NC(=C4)C(C)=C3CCC(=O)O)=CC1=N2 [Fe(II)heme] | 0.011 | –
C=CC1=C(C)C2=Cc3c(C=C)c(C)c4[n]3[Fe]([Cl])[n]3c(c(C)c(CCC(=O)O)c3=CC3=NC(=C4)C(C)=C3CCC(=O)O)=CC1=N2 [Fe(III)heme] | – | 12
